{
  "source": "patent US6071919A",
  "about": "“Zwitterionic compositions and methods as biological response modifiers” (priority 1998, dated 2000)",
  "key": {"[1]": {"test_system": "serum alkaline phosphatase", "test": "Example Six: serum alkaline phosphatase in healthy canines", "assay_type": "in vivo, canine", "conditions": "up to 500 mg/kg, five canines", "protocol": "Five healthy canines were administered up to 500 mg/kg of HEPES."}, "[2]": {"test": "Example Eight: patient with organophosphate induced polyneuropathy", "assay_type": "in vivo, human", "protocol": "A person with organophosphate induced polyneuropathy (such as found in Agent Orange toxicity and/or Gulf War Syndrome) had significant numbness in both legs, decreased sensation in both hands, and decreased proprioception was given 8 mg/kg orally of zwitterionic piperazine (HEPES) for two weeks."}, "[3]": {"test_system": "bone marrow / extramedullary hematopoiesis", "test": "Bone marrow and extramedullary hematopoiesis, in vivo tests", "parameters": "species or system dogs and humans", "protocol": "Further, the zwitterionic compounds reduce the mean inhibitory concentration (MIC) of susceptible […] in culture (in vitro) and enhances antibiotic activity in vivo. The zwitterionic compound may be used alone or with a carrier, such as sterile water or a saline solution. Enhancement and inducement of extramedullary hematopoiesis has been found in amounts of HEPES administered in an amount of about 18-20 mg/kilograms or greater for e.g. 40 mg/kg of body weight in dogs with daily intravenous injections over a defined time period of 1-2 weeks."}, "[4]": {"conditions": "intravenous and oral application"}},
  "data": [
    {"compound": "O=S(=O)(O)CCN1CCN(CCO)CC1", "note": "[HEPES, N-2 Hydroxyethylpiperazine-N'-2 Ethane Sulfonic Acid]", "values": [
      {"measurement": "serum alkaline phosphatase", "setting": "[1]", "value": "not detected by standard laboratory methods in all canines"},
      {"measurement": "myelin integrity / organic phosphate induced polyneuropathy", "setting": "[2]; 8 mg/kg orally", "value": "reversed the effect of organic phosphate induced polyneuropathy in the patient and restored myelin integrity"},
      {"measurement": "sensation and proprioception", "setting": "[2]; 8 mg/kg orally, end of two weeks", "value": "sensation and proprioception had returned"},
      {"measurement": "sensation and proprioception after reinstatement", "setting": "[2]; two weeks after reinstatement", "value": "sensation and proprioception were again restored"},
      {"measurement": "symptoms after stopping the medicine", "setting": "[2]; two weeks after stop", "value": "symptoms returned in two weeks"},
      {"measurement": "minimal effective dose", "setting": "[3]; Canis lupus familiaris, iv, dogs, daily i.v., 1-2 weeks, \"or greater\", read-out: amount of HEPES giving enhancement and inducement of extramedullary hematopoiesis", "value": "18 to 20", "unit": "mg/kg"},
      {"measurement": "extramedullary hematopoiesis", "setting": "[3]; [4]", "value": "induce extramedullary hematopoiesis in patients"},
      {"measurement": "hypercellular bone marrow", "setting": "[3]; [4]", "value": "induce hypercellular bone marrow"}
    ]}
  ]
}
